Measured values published in ChEMBL document CHEMBL1649335, “Discovery of {1-[4-(2-{hexahydropyrrolo[3,4-c]pyrrol-2(1H)-yl}-1H-benzimidazol-1-yl)piperidin-1-yl]cyclooctyl}methanol, systemically potent novel non-peptide agonist of nociceptin/orphanin FQ receptor as analgesic for the treatment of neuropathic pain: design, synthesis, and structure-activity …” (Bioorg Med Chem, 2010).
pEC50, pKi: −log10 of the molar value. Active and inactive are the calls of the source.

Columns and labels:
[1] = target: Substance-P receptor (Homo sapiens) (UniProt P25103); assay: Inhibition of human tachykinin NK1 receptor at 1 uM relative to control
Substance-P receptor (Homo sapiens), sequence (P25103 whole entry): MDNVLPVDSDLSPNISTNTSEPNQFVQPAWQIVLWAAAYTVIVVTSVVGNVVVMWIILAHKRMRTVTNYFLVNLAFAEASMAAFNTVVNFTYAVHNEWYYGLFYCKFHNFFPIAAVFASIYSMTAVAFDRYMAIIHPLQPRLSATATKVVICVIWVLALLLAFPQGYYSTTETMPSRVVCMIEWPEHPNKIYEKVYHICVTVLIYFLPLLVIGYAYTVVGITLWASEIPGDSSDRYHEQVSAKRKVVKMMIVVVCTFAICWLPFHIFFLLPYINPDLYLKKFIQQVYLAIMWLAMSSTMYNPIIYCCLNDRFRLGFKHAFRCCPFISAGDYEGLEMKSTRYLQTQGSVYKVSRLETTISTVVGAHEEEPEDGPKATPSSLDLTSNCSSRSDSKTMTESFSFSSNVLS

Rattus norvegicus [2] = assay: Antiallodynic activity against von Frey hair mechanically stimulated neuropathic pain in intrathecally dosed Sprague-Dawley rat assessed as assessed as minimum effective dose to increase of response threshold per site after 1 hr; type: functional
Rattus norvegicus [3] = assay: Antiallodynic activity against von Frey hair mechanically stimulated neuropathic pain in Sprague-Dawley rat assessed as effect on allodynia in contralateral paw at 1 to 30 mg/kg, sc after 30 mins; type: functional, organism-based
Rattus norvegicus [4] = organism: Rattus norvegicus; assay: Inhibition of rat 5-HT receptor at 1 uM relative to control
Rattus norvegicus [5] = organism: Rattus norvegicus; assay: Inhibition of rat GABA receptor at 1 uM relative to control
Rattus norvegicus [6] = assay: Antiallodynic activity against von Frey hair mechanically stimulated neuropathic pain in icv dosed Sprague-Dawley rat assessed as increase of response threshold per site after 20 mins; type: functional
Rattus norvegicus [7] = assay: Antiallodynic activity against von Frey hair mechanically stimulated neuropathic pain in Sprague-Dawley rat assessed as increase of response threshold at 30 mg/kg, sc after 30 mins relative to control; type: functional; conditions: route subcutaneous
[8] = target: Muscarinic acetylcholine receptor M3 (Homo sapiens) (UniProt P20309); assay: Inhibition of human muscarinic M3 receptor at 1 uM relative to control
Rattus norvegicus [9] = assay: Antiallodynic activity against von Frey hair mechanically stimulated neuropathic pain in sc dosed Sprague-Dawley rat assessed as increase of response threshold after 4 hrs; type: functional
Rattus norvegicus [10] = assay: Toxicity in von Frey hair mechanically stimulated neuropathic pain Sprague-Dawley rat model assessed as respiratory depression at up to 170 nmol/site, administered intrathecally; type: organism-based; conditions: in vivo, icv_or_intrathecal
[11] = target: Adrenergic receptor alpha-2 (Rattus norvegicus) (UniProt P22086+P19328+P22909); assay: Inhibition of rat alpha2 adrenoceptor at 1 uM relative to control
Rattus norvegicus [12] = organism: Rattus norvegicus; assay: Stimulation of rat guanylate cyclase at 1 uM relative to basal activity
Rattus norvegicus [13] = organism: Rattus norvegicus; assay: Inhibition of rat N-type calcium channel at 1 uM relative to control
[14] = target: Vasopressin V1a receptor (Homo sapiens) (UniProt P37288); assay: Inhibition of human vasopressin V1A receptor at 1 uM relative to control
Vasopressin V1a receptor (Homo sapiens), sequence (P37288 whole entry, looked up): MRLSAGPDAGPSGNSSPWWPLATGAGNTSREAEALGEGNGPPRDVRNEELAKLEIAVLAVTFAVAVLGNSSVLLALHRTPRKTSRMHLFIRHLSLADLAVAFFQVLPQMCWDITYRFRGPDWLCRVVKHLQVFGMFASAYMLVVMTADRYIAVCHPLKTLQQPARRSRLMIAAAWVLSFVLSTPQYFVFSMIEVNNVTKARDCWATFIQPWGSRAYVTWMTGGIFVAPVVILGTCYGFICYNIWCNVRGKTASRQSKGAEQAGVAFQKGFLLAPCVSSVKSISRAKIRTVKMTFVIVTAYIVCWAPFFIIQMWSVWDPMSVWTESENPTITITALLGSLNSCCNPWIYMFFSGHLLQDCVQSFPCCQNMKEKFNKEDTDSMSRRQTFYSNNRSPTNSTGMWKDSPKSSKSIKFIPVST

Rattus norvegicus [15] = assay: Antiallodynic activity against von Frey hair mechanically stimulated neuropathic pain in Sprague-Dawley rat assessed as increase of response threshold per site at 170 nmol/site administered intrathecally after 1 hr relative to control; type: functional
[16] = target: Glutamate NMDA receptor (Rattus norvegicus) (UniProt P35439+Q00959+Q00960+Q00961+Q62645+Q8VHN2+Q9R1M7); assay: Inhibition of rat NMDA receptor at 1 uM relative to control; type: protein-complex assay
[17] = Drug level Sprague-Dawley rat spinal cord at 10 mg/kg, sc after […]; type: ADME, organism-based; set-up: dose 10 mg/kg, route subcutaneous; conditions: read-out: Drug uptake
[18] = target: Tyrosine 3-monooxygenase (Rattus norvegicus) (UniProt P04177); assay: Inhibition of rat tyrosine hydroxylase at 1 uM relative to control
Tyrosine 3-monooxygenase (Rattus norvegicus), sequence (P04177 whole entry): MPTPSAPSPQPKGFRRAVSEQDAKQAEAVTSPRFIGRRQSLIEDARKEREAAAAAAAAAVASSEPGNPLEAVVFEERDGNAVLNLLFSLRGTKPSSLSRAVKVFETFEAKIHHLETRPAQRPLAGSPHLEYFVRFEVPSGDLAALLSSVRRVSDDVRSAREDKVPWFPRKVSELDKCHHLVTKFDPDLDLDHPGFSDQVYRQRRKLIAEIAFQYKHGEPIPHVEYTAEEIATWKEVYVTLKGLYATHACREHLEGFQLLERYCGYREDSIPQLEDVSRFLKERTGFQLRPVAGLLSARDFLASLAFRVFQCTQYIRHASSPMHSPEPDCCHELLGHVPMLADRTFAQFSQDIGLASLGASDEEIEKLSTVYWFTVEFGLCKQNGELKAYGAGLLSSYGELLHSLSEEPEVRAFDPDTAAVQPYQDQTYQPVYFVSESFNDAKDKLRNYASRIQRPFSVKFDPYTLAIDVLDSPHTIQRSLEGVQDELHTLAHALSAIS

Rattus norvegicus [19] = organism: Rattus norvegicus; assay: Inhibition of rat central benzodiazepine receptor at 1 uM relative to control
Rattus norvegicus [20] = assay: Antiallodynic activity against von Frey hair mechanically stimulated neuropathic pain in Sprague-Dawley rat assessed as effect on allodynia in contralateral paw at 5.5 to 170 nmol/site administered intrathecally after 1 hr; type: functional, organism-based
Rattus norvegicus [21] = assay: Antiallodynic activity against von Frey hair mechanically stimulated neuropathic pain in Sprague-Dawley rat assessed as assessed as minimum effective dose to increase of response threshold per site at 5.5 to 170 nmol/site, icv after 1 hr; type: functional, organism-based
Rattus norvegicus [22] = organism: Rattus norvegicus; assay: Inhibition of rat sodium channel site 2 at 1 uM relative to control
Rattus norvegicus [23] = assay: Antiallodynic activity against von Frey hair mechanically stimulated neuropathic pain in intrathecally dosed Sprague-Dawley rat assessed as assessed as minimum effective dose to increase of response threshold per site after 20 mins; type: functional
Rattus norvegicus [24] = organism: Rattus norvegicus; assay: Inhibition of rat GABA transporter at 1 uM relative to control
Nociceptin receptor = Nociceptin receptor (Homo sapiens, UniProt P41146)
Nociceptin receptor, sequence (P41146 whole entry): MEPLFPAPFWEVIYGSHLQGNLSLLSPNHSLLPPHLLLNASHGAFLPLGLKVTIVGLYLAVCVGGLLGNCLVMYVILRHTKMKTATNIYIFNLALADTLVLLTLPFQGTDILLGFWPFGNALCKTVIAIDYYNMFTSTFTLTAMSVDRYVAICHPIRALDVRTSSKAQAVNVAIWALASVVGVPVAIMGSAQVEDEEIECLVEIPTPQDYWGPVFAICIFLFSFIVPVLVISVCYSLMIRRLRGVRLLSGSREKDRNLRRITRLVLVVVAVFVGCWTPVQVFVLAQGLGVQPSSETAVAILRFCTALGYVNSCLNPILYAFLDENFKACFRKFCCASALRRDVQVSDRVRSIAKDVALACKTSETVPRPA

[25] = target: Voltage-gated inwardly rectifying potassium channel KCNH2 (Homo sapiens, UniProt Q12809); assay: Displacement of [3H]dofetilide from human ERG expressed in HEK293 cells after 60 mins by liquid scintillation counting; type: cell-based
[26] = target: Cannabinoid receptor 1 (Homo sapiens) (UniProt P21554); assay: Inhibition of human cannabinoid CB1 receptor at 1 uM relative to control
Cannabinoid receptor 1 (Homo sapiens), sequence (P21554 whole entry): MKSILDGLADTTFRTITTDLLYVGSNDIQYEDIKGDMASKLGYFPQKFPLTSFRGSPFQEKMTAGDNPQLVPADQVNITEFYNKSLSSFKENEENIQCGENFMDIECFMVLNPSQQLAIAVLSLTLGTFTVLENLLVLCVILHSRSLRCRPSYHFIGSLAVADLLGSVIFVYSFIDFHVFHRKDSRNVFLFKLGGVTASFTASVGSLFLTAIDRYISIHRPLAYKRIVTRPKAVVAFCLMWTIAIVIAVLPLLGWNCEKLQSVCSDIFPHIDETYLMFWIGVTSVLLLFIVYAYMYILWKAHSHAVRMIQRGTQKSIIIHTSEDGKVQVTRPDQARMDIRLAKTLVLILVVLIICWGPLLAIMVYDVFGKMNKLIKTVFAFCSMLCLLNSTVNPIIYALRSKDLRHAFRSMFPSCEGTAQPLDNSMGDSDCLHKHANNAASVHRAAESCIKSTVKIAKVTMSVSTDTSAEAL

Rattus norvegicus [27] = organism: Rattus norvegicus; assay: Inhibition of rat chloride channel at 1 uM relative to control
[28] = target: D(1A) dopamine receptor (Homo sapiens) (UniProt P21728); assay: Inhibition of human dopamine D1 receptor at 1 uM relative to control
D(1A) dopamine receptor (Homo sapiens), sequence (P21728 whole entry): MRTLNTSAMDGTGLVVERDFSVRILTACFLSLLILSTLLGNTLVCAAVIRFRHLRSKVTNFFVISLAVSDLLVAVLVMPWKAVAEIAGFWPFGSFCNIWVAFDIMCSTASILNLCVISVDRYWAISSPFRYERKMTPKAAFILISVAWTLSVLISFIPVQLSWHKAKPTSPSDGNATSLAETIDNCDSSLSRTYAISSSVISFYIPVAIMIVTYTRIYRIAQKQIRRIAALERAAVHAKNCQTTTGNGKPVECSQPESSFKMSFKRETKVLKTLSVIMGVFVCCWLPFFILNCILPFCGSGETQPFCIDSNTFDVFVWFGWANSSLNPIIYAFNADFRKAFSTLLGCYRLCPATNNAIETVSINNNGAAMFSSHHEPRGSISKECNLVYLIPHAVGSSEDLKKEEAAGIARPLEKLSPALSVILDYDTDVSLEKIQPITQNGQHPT

[29] = target: D(2) dopamine receptor (Homo sapiens) (UniProt P14416); assay: Inhibition of human dopamine D2 receptor at 1 uM relative to control
[30] = target: Beta-2 adrenergic receptor (Homo sapiens) (UniProt P07550); assay: Inhibition of human beta2 adrenoceptor at 1 uM relative to control
Beta-2 adrenergic receptor (Homo sapiens), sequence (P07550 whole entry, looked up): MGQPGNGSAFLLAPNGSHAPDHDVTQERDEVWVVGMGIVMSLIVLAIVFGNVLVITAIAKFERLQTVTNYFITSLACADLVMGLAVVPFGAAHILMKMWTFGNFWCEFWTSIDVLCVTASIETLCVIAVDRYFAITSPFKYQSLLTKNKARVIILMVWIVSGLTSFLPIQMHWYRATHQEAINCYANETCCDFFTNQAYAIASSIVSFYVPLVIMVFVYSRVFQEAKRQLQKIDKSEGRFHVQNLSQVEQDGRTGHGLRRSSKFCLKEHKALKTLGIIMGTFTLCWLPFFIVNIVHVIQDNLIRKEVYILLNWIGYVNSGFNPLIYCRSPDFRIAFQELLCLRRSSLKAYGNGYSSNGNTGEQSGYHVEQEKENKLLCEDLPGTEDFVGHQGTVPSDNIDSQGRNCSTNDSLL

Rattus norvegicus [31] = assay: Toxicity in von Frey hair mechanically stimulated neuropathic pain Sprague-Dawley rat model assessed as sedation effect at up to 170 nmol/site, icv; type: organism-based; conditions: in vivo, icv_or_intrathecal
Rattus norvegicus [32] = organism: Rattus norvegicus; assay: Inhibition of rat thyroid hormone receptor at 1 uM relative to control
[33] = target: Small conductance calcium-activated potassium channel protein 1 (Rattus norvegicus) (UniProt P70606); assay: Inhibition of rat SKCa channel at 1 uM relative to control
Rattus norvegicus [34] = assay: Antiallodynic activity against von Frey hair mechanically stimulated neuropathic pain in sc dosed Sprague-Dawley rat assessed as assessed as minimum effective dose to increase of response threshold after 30 mins; type: functional
Rattus norvegicus [35] = assay: Antiallodynic activity against von Frey hair mechanically stimulated neuropathic pain in Sprague-Dawley rat assessed as effect on allodynia in contralateral paw at 1 to 30 mg/kg, sc after 1 hr; type: functional, organism-based
[36] = target: L-type calcium channel, dihydropyridine site (Rattus norvegicus, UniProt P22002+P27732+Q02485); assay: Inhibition of rat L-type calcium channel dihydropyridine site at 1 uM relative to control
Rattus norvegicus [37] = assay: Antiallodynic activity against von Frey hair mechanically stimulated neuropathic pain in Sprague-Dawley rat assessed as effect on allodynia in contralateral paw at 1 to 30 mg/kg, sc after 4 hrs; type: functional, organism-based
[38] = target: D(4) dopamine receptor (Homo sapiens) (UniProt P21917); assay: Inhibition of human dopamine D4.4 receptor at 1 uM relative to control
D(4) dopamine receptor (Homo sapiens), sequence (P21917 whole entry): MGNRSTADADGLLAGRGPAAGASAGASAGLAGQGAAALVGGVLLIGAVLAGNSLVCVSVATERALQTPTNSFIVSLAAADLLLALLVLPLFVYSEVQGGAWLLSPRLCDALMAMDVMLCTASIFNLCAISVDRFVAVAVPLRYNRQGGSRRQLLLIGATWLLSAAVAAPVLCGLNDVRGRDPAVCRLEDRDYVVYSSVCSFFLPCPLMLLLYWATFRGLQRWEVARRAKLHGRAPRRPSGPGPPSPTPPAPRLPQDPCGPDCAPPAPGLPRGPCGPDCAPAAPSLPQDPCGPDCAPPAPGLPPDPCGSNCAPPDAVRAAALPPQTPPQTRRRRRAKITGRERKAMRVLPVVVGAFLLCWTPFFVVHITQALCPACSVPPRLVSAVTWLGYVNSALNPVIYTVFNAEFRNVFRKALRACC

[39] = target: Estrogen receptor (Homo sapiens) (UniProt P03372); assay: Inhibition of human estrogen receptor beta at 1 uM relative to control
Estrogen receptor (Homo sapiens), sequence (P03372 whole entry): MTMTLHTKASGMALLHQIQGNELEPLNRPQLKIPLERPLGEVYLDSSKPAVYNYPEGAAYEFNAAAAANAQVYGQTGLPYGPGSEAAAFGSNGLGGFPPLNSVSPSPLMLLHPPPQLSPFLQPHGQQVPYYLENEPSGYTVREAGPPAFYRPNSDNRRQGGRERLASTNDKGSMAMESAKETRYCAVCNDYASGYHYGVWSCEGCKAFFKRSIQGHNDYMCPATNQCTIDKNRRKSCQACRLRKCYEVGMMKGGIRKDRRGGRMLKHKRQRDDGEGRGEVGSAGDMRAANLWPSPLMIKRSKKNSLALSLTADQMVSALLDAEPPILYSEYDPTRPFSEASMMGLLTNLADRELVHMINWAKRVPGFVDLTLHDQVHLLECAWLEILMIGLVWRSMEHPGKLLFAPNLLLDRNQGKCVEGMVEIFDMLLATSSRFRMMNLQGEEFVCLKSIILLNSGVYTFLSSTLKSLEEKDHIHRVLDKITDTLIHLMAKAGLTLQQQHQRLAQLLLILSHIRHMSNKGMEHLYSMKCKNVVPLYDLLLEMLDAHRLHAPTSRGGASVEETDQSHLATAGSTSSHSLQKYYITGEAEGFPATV

Rattus norvegicus [40] = organism: Rattus norvegicus; assay: Inhibition of rat phospholipase C at 1 uM relative to control
Rattus norvegicus [41] = assay: Antiallodynic activity against von Frey hair mechanically stimulated neuropathic pain in Sprague-Dawley rat assessed as increase of response threshold per site at 170 nmol/site administered intrathecally after 20 mins relative to control; type: functional
Mu-type opioid receptor = Mu-type opioid receptor (Homo sapiens, UniProt P35372)
Mu-type opioid receptor, sequence (P35372 whole entry): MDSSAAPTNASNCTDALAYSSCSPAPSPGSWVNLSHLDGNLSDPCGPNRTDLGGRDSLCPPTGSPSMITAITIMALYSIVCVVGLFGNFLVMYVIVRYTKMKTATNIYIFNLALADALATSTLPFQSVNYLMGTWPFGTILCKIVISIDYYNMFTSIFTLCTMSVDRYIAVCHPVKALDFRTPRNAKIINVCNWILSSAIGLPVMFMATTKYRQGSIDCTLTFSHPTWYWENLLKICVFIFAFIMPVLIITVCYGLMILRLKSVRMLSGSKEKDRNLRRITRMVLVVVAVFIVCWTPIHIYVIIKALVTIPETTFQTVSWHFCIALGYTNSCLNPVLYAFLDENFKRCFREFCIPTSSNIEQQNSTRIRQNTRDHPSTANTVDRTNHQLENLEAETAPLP

[42] = target: Muscarinic acetylcholine receptor M1 (Homo sapiens) (UniProt P11229); assay: Inhibition of human muscarinic M1 receptor at 1 uM relative to control
Muscarinic acetylcholine receptor M1 (Homo sapiens), sequence (P11229 whole entry): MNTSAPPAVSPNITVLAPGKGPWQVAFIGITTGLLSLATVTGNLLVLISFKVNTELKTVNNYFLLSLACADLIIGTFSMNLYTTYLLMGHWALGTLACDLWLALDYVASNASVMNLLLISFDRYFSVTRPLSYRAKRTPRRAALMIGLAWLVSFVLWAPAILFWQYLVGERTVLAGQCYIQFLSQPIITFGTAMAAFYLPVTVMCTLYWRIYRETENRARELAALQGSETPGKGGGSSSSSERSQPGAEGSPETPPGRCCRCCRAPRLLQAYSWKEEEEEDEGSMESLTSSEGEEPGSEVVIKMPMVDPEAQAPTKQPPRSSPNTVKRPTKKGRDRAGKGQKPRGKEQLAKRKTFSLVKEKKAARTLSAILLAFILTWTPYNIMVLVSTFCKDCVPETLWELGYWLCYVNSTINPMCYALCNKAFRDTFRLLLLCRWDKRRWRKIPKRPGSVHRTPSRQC

## OCC1(N2CCC(n3c(N4CC5CNCC5C4)nc4ccccc43)CC2)CCCCCCC1 (centres undefined)
[1]
  inhibition: < 10%
Rattus norvegicus [2]
  MED: 55 nmol
Rattus norvegicus [3]
  Activity: inactive
Rattus norvegicus [4]
  inhibition: < 10%
Rattus norvegicus [5]
  inhibition: < 10%
Rattus norvegicus [6]
  ED50: 170 nmol
Rattus norvegicus [7]
  Activity: 57.6%
[8]
  inhibition: < 10%
Rattus norvegicus [9]
  ED50: > 30 mg/kg
Rattus norvegicus [10]
  Activity: Non-toxic
[11]
  inhibition: < 10%
Rattus norvegicus [12]
  inhibition: < 10%
Rattus norvegicus [13]
  inhibition: < 10%
[14]
  inhibition: < 10%
Rattus norvegicus [15]
  Activity: 45.5%
[16]
  inhibition: < 10%
[17]
  concentration at […]: 63 ng/mL
[18]
  inhibition: < 10%
Rattus norvegicus [19]
  inhibition: < 10%
Rattus norvegicus [20]
  Activity: inactive
Rattus norvegicus [21]
  MED: inactive
Rattus norvegicus [22]
  inhibition: < 10%
Rattus norvegicus [23]
  MED: 55 nmol
Rattus norvegicus [24]
  inhibition: 24%
Nociceptin receptor
  pEC50: 7.92
[25]
  pKi: 5.43
[26]
  inhibition: 18%
Rattus norvegicus [27]
  inhibition: < 10%
[28]
  inhibition: < 10%
[29]
  inhibition: < 10%
[30]
  inhibition: 53%
Rattus norvegicus [31]
  Activity: Non-toxic
Rattus norvegicus [32]
  inhibition: < 10%
[33]
  inhibition: < 10%
Rattus norvegicus [34]
  MED: 30 mg/kg
Rattus norvegicus [35]
  Activity: inactive
[36]
  inhibition at 1 µM: < 10%
Rattus norvegicus [37]
  Activity: inactive
[38]
  inhibition: < 10%
[39]
  inhibition: < 10%
Rattus norvegicus [40]
  inhibition: < 10%
Rattus norvegicus [41]
  Activity: 59.3%
Mu-type opioid receptor
  pEC50: 5.46
[42]
  inhibition: 15%
